Each structure is given as a SMILES string. Read-outs that look alike come from different tables or passages of the source.

Results on three molecules are retold here after patent US8575135B2 (Gilead Sciences, Inc., priority 2011, dated 2013).

What all share (experiment): microbe, parasite or virus in culture
The subject of assay [1] is stable HCV 1a RLuc replicon cells (genotype 1a H77 replicon). Format: cell-based. As to conditions: Hepatitis C virus.
The test system of assay [2] is stable HCV 1b RLuc replicon cells (genotype 1b Con1 replicon). Format: cell-based. The conditions noted are these: Hepatitis C virus, read-out: 1b (nM).
Assay [3] has as its system stable HCV 2a JFH-1 Rluc replicon cells (L31 present in NS5A). Format: cell-based. As to conditions: Hepatitis C virus.
Assay [4] relates to NS5A chimeric genotype 2a JFH-1 replicon with genotype 2a J6 strain NS5A gene (M31 present). The assay is classed as cell-based, HCV. The conditions noted are these: Hepatitis C virus.
Assay [5] has as its system NS5A chimeric genotype 2a JFH-1 replicon with genotype 2b MD2b-1 strain NS5A gene (M31 present). The assay is classed as cell-based, HCV. As to conditions: Hepatitis C virus. The method, boiled down: (§1)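 Con1-based 3a and 4a chimeras carried a Pi-RLuc reporter and were transiently transfected into Huh-Lunet cells; the JFH-1-based 2b chimera (RLuc-Neo) was used transiently or as stable replicon cells.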

Assay [6] relates to NS5A chimeric genotype 1b Con1 replicon with genotype 3a S52 strain NS5A gene. Format: cell-based, HCV. As to conditions: Hepatitis C virus. The method, boiled down:
as §1

Assay [7] deals with NS5A chimeric genotype 1b Con1 replicon with genotype 4a ED43 strain NS5A gene. Format: cell-based, HCV. The conditions noted are these: Hepatitis C virus.
Assay [8] has as its system 1a Pi-Rluc replicon with Q30R in genotype 1a NS5A. The assay is classed as cell-based, HCV. As to conditions: Hepatitis C virus. The method in brief: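 Q30R introduced by site-directed mutagenesis into genotype 1a Pi-RLuc replicon; RNA transiently transfected into Huh-7-derived cured-51 cells.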

Take `CCC(C)[C@H](NC(=O)OC)C(=O)N1C[C@@H](C)CC1c1ncc(-c2ccc3c(c2)COc2cc4c(ccc5nc([C@@H]6CC(COC)CN6C(=O)[C@@H](NC(=O)OC)C(C)C)[nH]c54)cc2-3)[nH]1` (stereo in doubt) [Example QC, Methyl {(2S)-1-[(2S,4S)-2-(9-{2-[(2S,4S)-1-{(2S,3R)-2-[(methoxycarbonyl)amino]-3-methylpentanoyl}-4-methylpyrrolidin-2-yl]-1H-imidazol-5-yl}-1,11-dihydroisochromeno[4′,3′:6,7]naphtho[1,2-d]imidazol-2-yl)-4-(methoxymethyl)pyrrolidin-1-yl]-3-methyl-1-oxobutan-2-yl}carbamate]: the EC50 in assay [1] (read-out: 1a) was less than 1 nM; in assay [1] (read-out: 1a (nM)) it was 0.012 nM; in assay [2], 0.014 nM; in assay [3] (read-out: 2a JFH) it was less than 1 nM; in assay [3] (read-out: 2a JFH (nM)), 0.008 nM; in assay [4] (read-out: 2a J6), less than 1 nM. Besides, the EC50 in assay [4] (read-out: 2a Jb (t) (nM)) was 0.157 nM; in assay [5] (read-out: 2b), less than 1 nM; in assay [5] (read-out: 2b (t) (nM)), 0.317 nM.

For `CCC(C)C(NC(=O)OC)C(=O)N1CC(COC)C[C@H]1c1nc2ccc3cc4c(cc3c2[nH]1)OCc1cc(-c2cnc(C3C[C@H](C)CN3C(=O)[C@@H](NC(=O)OC)C(C)CC)[nH]2)ccc1-4` (stereo in doubt) [Example QE, Methyl {(3R)-1-[(2S,4S)-2-(9-{2-[(2S,4S)-1-{(2S,3R)-2-[(methoxycarbonyl)amino]-3-methylpentanoyl}-4-methylpyrrolidin-2-yl]-1H-imidazol-5-yl}-1,11-dihydroisochromeno[4′,3′:6,7]naphtho[1,2-d]imidazol-2-yl)-4-(methoxymethyl)pyrrolidin-1-yl]-3-methyl-1-oxopentan-2-yl}carbamate], the EC50 in assay [1] (read-out: 1a) is less than 1 nM; in assay [1] (read-out: 1a (nM)), 0.013 nM; in assay [2] it was 0.015 nM; in assay [3] (read-out: 2a JFH) it was less than 1 nM; in assay [3] (read-out: 2a JFH (nM)), 0.011 nM; in assay [4] (read-out: 2a J6), less than 1 nM. Besides, the results for the EC50 in assay [4] (read-out: 2a Jb (t) (nM)), in assay [5] (read-out: 2b) and in assay [5] (read-out: 2b (t) (nM)) were 0.291 nM, less than 1 nM and 0.563 nM, respectively.

Consider `COC(=O)N[C@H](C(=O)N1C[C@@H](C)C[C@H]1c1ncc(-c2ccc3c(c2)COc2cc4c(ccc5nc([C@@H]6C[C@H](C)CN6C(=O)[C@H](NC(=O)OC)c6ccccc6)[nH]c54)cc2-3)[nH]1)C(C)C` [Example NF, Methyl {(2S)-1-[(2S,4S)-2-(5-{2-[(2S,4S)-1-{(2R)-2-[(methoxycarbonyl)amino]-2-phenylacetyl}-4-methylpyrrolidin-2-yl]-1,11-dihydroisochromeno[4′,3′:6,7]naphtho[1,2-d]imidazol-9-yl}-1H-imidazol-2-yl)-4-methylpyrrolidin-1-yl]-3-methyl-1-oxobutan-2-yl}carbamate], for which the EC50 in assay [1] (read-out: 1a) was less than 1 nM; in assay [1] (read-out: 1a (nM)) it was 0.011 nM; in assay [3] (read-out: 2a JFH) it was less than 1 nM; in assay [3] (read-out: 2a JFH (nM)), 0.006 nM; in assay [6] (read-out: 3a), less than 1 nM; in assay [6] (read-out: 3a (nM)), 0.017 nM. The EC50 is less than 1 nM in assay [4] (read-out: 2a J6); 0.218 nM in assay [4] (read-out: 2a J6 (s) (nM)); 0.031 nM in assay [4] (read-out: 2a Jb (t) (nM)); less than 1 nM in assay [5] (read-out: 2b); 0.064 nM in assay [5] (read-out: 2b (s) (nM)); 0.018 nM in assay [5] (read-out: 2b (t) (nM)). Further, the EC50 is less than 1 nM in assay [7] (read-out: 4a); 0.012 nM in assay [7] (read-out: 4a (s) (nM)); 0.009 nM in assay [7] (read-out: 4a (t) (nM)); less than 1 nM in assay [8] (read-out: 1a Q30R); 0.017 nM in assay [8] (read-out: 1a Q30R (nM)).
